Test results as given in ChEMBL document CHEMBL2029326, “Alstiphyllanines I-O, ajmaline type alkaloids from Alstonia macrophylla showing vasorelaxant activity” (Bioorg Med Chem, 2012).
The source made the active and inactive calls. The calls are words filed in the database; no cut-off is given here.

Experiments:
Assay type in all cases: functional, tissue-based
Aorta [1] = test: Vasorelaxant activity in Wistar rat endothelium-intact thoracic aortic ring assessed as inhibition of phenylephrine-induced contraction at 30 uM measured after 60 mins
Aorta [2] = test: Vasorelaxant activity in Wistar rat endothelium-denuded thoracic aortic ring assessed as inhibition of phenylephrine-induced contraction measured after 60 mins in presence of 100 uM L-NMMA
Aorta [3] = test: Vasorelaxant activity in Wistar rat endothelium-denuded thoracic aortic ring assessed as inhibition of phenylephrine-induced contraction measured after 60 mins
Aorta [4] = test: Vasorelaxant activity in Wistar rat endothelium-intact thoracic aortic ring assessed as inhibition of phenylephrine-induced contraction at 30 uM measured within 5 to 15 mins
Aorta [5] = test: Vasorelaxant activity in Wistar rat endothelium-denuded thoracic aortic ring assessed as inhibition of phenylephrine-induced contraction measured after 60 mins in presence of Bkca inhibitor TEA pretreated for 30 mins before contraction
Aorta [6] = test: Vasorelaxant activity in Wistar rat endothelium-intact thoracic aortic ring assessed as inhibition of phenylephrine-induced contraction at 100 uM measured after 60 mins
Aorta [7] = test: Vasorelaxant activity in Wistar rat endothelium-denuded thoracic aortic ring assessed as inhibition of KCl-induced contraction at 30 uM pretreated for 30 mins measured after 60 mins
Aorta [8] = test: Vasorelaxant activity in Wistar rat phenylephrine-prestimulated endothelium-denuded thoracic aortic ring assessed as inhibition of CaCl2-induced contraction added before PE-stimulation

| Structure (SMILES) | Activity (Aorta [1]) | further results |
| --- | --- | --- |
| C/C=C1/CN2[C@H]3C[C@@]45c6ccccc6N(C(=O)c6cc(OC)c(OC)c(OC)c6)[C@@H]4[C@@H]2C[C@@H]1C3(C(=O)OC)[C@H]5O (some centres undefined) | Active | – |
| C/C=C1\CN2[C@H]3C[C@@]45c6ccccc6N(C)[C@@H]4[C@@H]2C[C@@H]1[C@@]3(C(=O)OC)C5OC(=O)c1ccc(OC)c(OC)c1 (some centres undefined) | Active | – |
| C/C=C1\CN2[C@H]3C[C@@]45c6ccccc6N(C(=O)c6cc(OC)c(OC)c(OC)c6)[C@@H]4[C@@H]2C[C@@H]1C3(C(=O)OC)[C@H]5O (some centres undefined) | Active | – |
| C/C=C1\C[N+]2([O-])[C@H]3C[C@@H]1[C@]1(C(=O)OC)[C@@H](OC(C)=O)[C@]4(C[C@@H]12)c1ccccc1N(C)[C@H]34 | Active | – |
| C/C=C1\CN2[C@H]3C[C@@]45c6ccccc6N(C(=O)c6ccccc6)[C@@H]4[C@@H]2C[C@@H]1C3(C(=O)OC)[C@H]5O (some centres undefined) | Active | – |
| C/C=C1\C[N+]2([O-])[C@H]3C[C@@H]1[C@@]1(C(=O)OC)C(O)[C@]4(C[C@@H]12)c1ccccc1N(C)[C@H]34 (some centres undefined) | Active | – |
| C/C=C1\CN2[C@H]3C[C@@]45c6ccccc6N(C(=O)c6cc(OC)c(OC)c(OC)c6)[C@@H]4[C@@H]2C[C@@H]1C3(C(=O)OC)[C@H]5OC(C)=O (some centres undefined) | Active | – |
| C/C=C1\CN2[C@H]3C[C@@]45c6ccccc6N(C)[C@@H]4[C@@H]2C[C@@H]1[C@@]3(C(=O)OC)C5OC(C)=O (some centres undefined) | Active | Activity (Aorta [2]): inactive; Activity (Aorta [3]): Active; Activity (Aorta [4]): Active; Activity (Aorta [5]): Dose-dependent effect; Activity (Aorta [6]): Active; Activity (Aorta [7]): Active; Activity (Aorta [8]): Active |
| C/C=C1\CN2[C@H]3C[C@@]45c6ccccc6N(C(=O)c6ccc(OC)c(OC)c6)[C@@H]4[C@@H]2C[C@@H]1C3(C(=O)OC)[C@H]5OC(C)=O (relative stereo) | Active | – |
| C/C=C1\CN2[C@H]3C[C@@]45c6ccccc6N(C)[C@@H]4[C@@H]2C[C@@H]1[C@@]3(C(=O)OC)C5O (some centres undefined) | Active | – |
| C/C=C1\CN2[C@H]3C[C@@]45c6ccccc6N(C)[C@@H]4[C@@H]2C[C@@H]1[C@@]3(C(=O)OC)C5OC(=O)c1cc(OC)c(OC)c(OC)c1 (some centres undefined) | Active | – |
| C/C=C1\CN2[C@H]3C[C@@]45c6ccccc6N(C(=O)c6ccc(OC)c(OC)c6)[C@@H]4[C@@H]2C[C@@H]1C3(C(=O)OC)[C@H]5O (some centres undefined) | Active | – |
